From patent publication US10576102B2, “KOC1-derived peptide and vaccine including same” (ONCOTHERAPY SCIENCE, INC., priority 2014, dated 2020)
“Also recorded” adds a separate entry of the source.

Legend:
Format in all cases: cell-based, human
peptide-pulsed C1R-A33 [1] = assay: In vitro CTL induction, IFN-gamma ELISPOT assay (HLA-A*3303); settings: CTLs induced with peptide-pulsed DCs from HLA-A*3303-positive volunteers, day 21, vs peptide-pulsed C1R-A33, compared with unpulsed control
Experimental: (§1) C1R (C1R-A33) that stably expresses HLA-A*3303 was used as a stimulator cell. A cDNA encoding the open-reading frame of HLA-A*3303 was amplified by PCR and cloned into an expression vector. C1R cells were transfected with the expression vector, and then selected using G418 (Invitrogen) for two weeks. The G418-selected cells were seeded into wells containing G418-added culture medium in a 96-well plate, and further cultured for 30 days. The exogenous HLA-A*3303 expression in C1R cells was verified by flow cytometric analysis.
(§2) Monocyte-derived dendritic cells (DCs) were used as the antigen-presenting cell to induce a cytotoxic T lymphocyte (CTL) response against peptides presented on human leukocyte antigens (HLAs). As described in the other sections, DCs were generated in vitro (Nakahara S et al., Cancer Res 2003, 63(14): 4112-8). Specifically, peripheral-blood mononuclear cells isolated from healthy volunteers (HLA-A*3303-positive) with the Ficoll-Paque plus solution (Pharmacia) were separated by attaching to plastic tissue culture dishes (Becton Dickinson) and concentrated as a monocyte fraction. The monocyte-concentrated population was cultured in the presence of 1000 IU/ml granulocyte macrophage colony-stimulating factor (R&D System) and 1000 IU/ml interleukin(IL)-4 (R&D System) in an AIM-V medium (Invitrogen) containing 2% heat-inactivated autologous serum (AS). After seven days of culturing, the cytokine-induced DCs were pulsed with 20 micro-g/ml each of the synthesized peptides in an AIM-V medium at 37 degrees C. for three hours in the presence of 3 micro-g/ml beta 2-microglobulin. The generated cells appeared to express on their cell surface DC-associated molecules such as CD80, CD83, CD86 and HLA class II (data not shown). Next, these peptide-pulsed DCs were inactivated by X-ray irradiation (20 Gy), and mixed in a 1:20 ratio with autologous CD8^+ T cells obtained by positive selection using the CD8 Positive Isolation Kit (Dynal). These culture products were seeded in a 48-well plate (Corning). Each well was made to contain 1.5×10^4 peptide-pulsed DCs, 3×10^5 CD8^+ T cells and 10 ng/ml IL-7 (R&D System) in 0.5 ml of the AIM-V/2% AS medium. Three days later, these culture products were added with a final concentration of 20 IU/ml IL-2 (CHIRON). On day 7 and day 14, T cells were further stimulated with peptide-pulsed autologous DCs. The DCs were prepared every time by the same method as above. On day 21, after the third peptide stimulation, CTLs were examined against the peptide-pulsed C1R-A33 cell by a human interferon (IFN)-gamma enzyme-linked immunospot (ELISPOT) assay (Tanaka H et al., Br J Cancer 2001, 84(1): 94-9; Umano Y et. al., Br J Cancer 2001, 84(8): 1052-7; Uchida N et al., Clin Cancer Res 2004, 10(24): 8577-86; Suda T et al., Cancer Sci 2006, 97(5): 411-9; Watanabe T et al., Cancer Sci 2005, 96(8): 498-506).
(§3) Specifically, peptide-pulsed C1R-A33 (1×10^4 cells/well) was prepared as the stimulator cell. The induced CTLs, i.e., CTL lines and CTL clones, were used as the responder cell. The IFN-gamma ELISPOT assay and IFN-gamma ELISA were performed according to the manufacturer's manual.

peptide-pulsed C1R-A01 = assay: In vitro CTL induction, IFN-gamma ELISPOT assay (HLA-A*0101); settings: CTLs induced with peptide-pulsed DCs from HLA-A*0101-positive volunteers, day 21, vs peptide-pulsed C1R-A01, compared with unpulsed control
Experimental: as §1, with “(C1R-A01)” for “(C1R-A33)”, “HLA-A*0101” for “HLA-A*3303”
as §2, with “(HLA-A*0101-positive)” for “(HLA-A*3303-positive)”, “2-microglobulin.” for “2-microglobulin. The generated cells appeared to express on their cell surface DC-associated molecules such as CD80, CD83, CD86 and HLA class II (data not shown).”, “CTL activities” for “CTLs”, “C1R-A01 cells” for “C1R-A33 cell by a human interferon (IFN)-gamma enzyme-linked immunospot (ELISPOT) assay”, “et” for “et.”
Specifically, peptide-pulsed C1R-A01 (1×10^4 cells/well) was prepared as the stimulator cell. The induced CTLs, i.e., CTL lines and CTL clones, were used as the responder cell. The IFN-gamma ELISPOT assay and IFN-gamma ELISA were performed according to the manufacturer's manual.

peptide-pulsed C1R-A33 [2] = assay: IFN-gamma ELISA of CTL lines and CTL clones (HLA-A*3303); settings: for IFN-gamma production of CTL clones, ELISA: CTL clones by limiting dilution, peptide-pulsed C1R-A33; for IFN-gamma production of CTL lines, ELISA: target cells pulsed with the peptide vs not pulsed, C1R-A33
Experimental: CTLs were propagated in culture using methods similar to those disclosed by Riddell et al. (Walter E A et al., N Engl J Med 1995, 333(16): 1038-44; Riddell S R et al., Nat Med 1996, 2(2): 216-23). The CTLs were co-cultured in a total of 25 ml AIM-V medium containing 5% AS (AIM-V/5% AS) and 40 ng/ml anti-CD3 antibody with two types of Mitomycin C-treated human B lymphoblastoid cell lines at 5×10^6 cells/flask. One day after beginning of the culturing, 120 IU/ml IL-2 was added to the culture. On days 5, 8 and 11, a fresh AIM-V/5% AS medium containing 30 IU/ml IL-2 was added to the culture (Tanaka H et al., Br J Cancer 2001, 84(1): 94-9; Umano Y et al., Br J Cancer 2001, 84(8): 1052-7; Uchida N et al., Clin Cancer Res 2004, 10(24): 8577-86; Suda T et al., Cancer Sci 2006, 97(5): 411-9; Watanabe T et al., Cancer Sci 2005, 96(8): 498-506).
Dilution of CTLs was carried out to make 0.3, 1 and 3 cells/well in 96 round-bottomed microtiter plates (Nalge Nunc International). The CTLs were co-cultured with two types of Mitomycin C-treated human B lymphoblastoid cell lines at 1×10^4 cells/well in a total of 150 micro-1/well AIM-V/5% AS medium with 30 ng/ml anti-CD3 antibody and 125 IU/ml IL-2. Ten days later, IL-2 was added to the medium at 50 micro-1/well to reach a final concentration of 125 IU/ml. On day 14, the CTL activity was tested, and the CTL clones were propagated using the same method as described above (Uchida N et al., Clin Cancer Res 2004, 10(24): 8577-86; Suda T et al., Cancer Sci 2006, 97(5): 411-9; Watanabe T et al., Cancer Sci 2005, 96(8): 498-506).
as §3

Row | Sequence | peptide-specific CTL activity (IFN-gamma production), ELISPOT (peptide-pulsed C1R-A33 [1]) | peptide-specific CTL activity (IFN-gamma production), ELISPOT (peptide-pulsed C1R-A01) | other results
1 | ELTLYNPER (a peptide derived from KOC1) [SEQ ID NO: 63] | potent IFN-gamma production |  | 
2 | ETETVHLFI (a peptide derived from KOC1) [SEQ ID NO: 90] |  | potent IFN-gamma production | 
3 | FYACQVAQR (a peptide derived from KOC1) [SEQ ID NO: 61] | potent IFN-gamma production |  | IFN-gamma production of CTL clones, ELISA (peptide-pulsed C1R-A33 [2]; listed as KOC1-A33-9-543): Potent IFN-gamma production; IFN-gamma production of CTL lines, ELISA (peptide-pulsed C1R-A33 [2]): potent IFN-gamma production
4 | FYACQVAQRK (a peptide derived from KOC1) [SEQ ID NO: 79] | potent IFN-gamma production |  | 
5 | ISPLQELTLY (a peptide derived from KOC1) [SEQ ID NO: 46] |  | potent IFN-gamma production | 
6 | LAHNNFVGR (a peptide derived from KOC1) [SEQ ID NO: 62] | potent IFN-gamma production |  | IFN-gamma production of CTL clones, ELISA (peptide-pulsed C1R-A33 [2]; listed as KOC1-A33-9-282): Potent IFN-gamma production; IFN-gamma production of CTL lines, ELISA (peptide-pulsed C1R-A33 [2]): potent IFN-gamma production
7 | LVKTGYAFV (a peptide derived from KOC1) [SEQ ID NO: 74] | potent IFN-gamma production |  | 
8 | NNFVGRLIGK (a peptide derived from KOC1) [SEQ ID NO: 85] | potent IFN-gamma production |  | 
9 | QGQHIKQLSR (a peptide derived from KOC1) [SEQ ID NO: 80] | potent IFN-gamma production |  | 
10 | QSETETVHL (a peptide derived from KOC1) [SEQ ID NO: 92] |  | potent IFN-gamma production | 
11 | QSETETVHLF (a peptide derived from KOC1) [SEQ ID NO: 95] |  | potent IFN-gamma production | 
12 | SSAEVVVPR (a peptide derived from KOC1) [SEQ ID NO: 4] |  |  | peptide-specific CTL activity (IFN-gamma production), ELISPOT (peptide-pulsed C1R-A33 [1]; listed as KOC1-A33-9-517): no specific IFN-gamma production; also recorded: specific IFN-gamma production was not observed
13 | VVKITGHFY (a peptide derived from KOC1) [SEQ ID NO: 13] |  |  | peptide-specific CTL activity (IFN-gamma production), ELISPOT (peptide-pulsed C1R-A01; listed as KOC1-A01-9-536): no specific IFN-gamma production; also recorded: specific IFN-gamma production was not observed
14 | VVVKITGHFY (a peptide derived from KOC1) [SEQ ID NO: 41] |  | potent IFN-gamma production | 
